Structures can show the parent of a compound that is named as a salt.

As usually defined, the melting point is the temperature, or range, at which the solid turns liquid. Molecule `CN(C)c1ccc(-c2[nH]nc3c2C(=O)c2c(NC(=O)CN4CCOCC4)cccc2-3)cc1` [Example LV, 3-(4-(N,N-dimethylamino)phenyl)-5-(morpholinoacetamido)indeno[1,2-c]pyrazol-4-one] registered a melting point of over 300 °C.
For `Cc1ccsc1-c1[nH]nc2c1C(=O)c1c(NC(N)=O)cccc1-2` [Example XCVII, 3-(3-methyl-2-thienyl)-5-(carbamoylamino)indeno[1,2-c]pyrazol-4-one] the value was 270 °C; for `CN1CCCC(C(=O)N2CCC(c3[nH]nc4c3C(=O)c3c(NC(=O)NN5CCOCC5)cccc3-4)CC2)C1` (centres unmarked) (as salt: TFA) [Example CCLXXXVIII, 3-(1-(1-methylpiperidin-3-ylcarbonyl)piperidin-4-yl)-5-(morpholinocarbamoylamino)indeno[1,2-c]pyrazol-4-one], 158 °C; for `COc1ccc(-c2[nH]nc3c2C(=O)c2c(NC(C)=O)cccc2-3)cc1` [Example I, 3-(4-methoxyphenyl)-5-(acetamido)indeno[1,2-c]pyrazol-4-one], 268 °C.
For `CC(C)(C)OC(=O)Nc1ccc(CC(=O)N2CCC(c3[nH]nc4c3C(=O)c3c(NC(=O)NN5CCOCC5)cccc3-4)CC2)cc1` [Example CCXCVI, 3-(1-(4-(t-butoxycarbonylamino)benzylcarbonyl)piperidin-4-yl)-5-(morpholinocarbamoylamino)indeno[1,2-c]pyrazol-4-one] the value was 177 °C.
In turn, `NCC1CCN(CC(=O)Nc2cccc3c2C(=O)c2c-3n[nH]c2-c2ccc(N3CCOCC3)cc2)CC1` [Example LXXXIV, 3-(4-morpholinophenyl)-5-(4-(aminomethyl)piperidinoacetamido)indeno[1,2-c]pyrazol-4-one] showed a melting point of 240 °C.
The result for `COc1ccc(-c2[nH]nc3c2C(=O)c2c(NC(=O)CNCCO)cccc2-3)cc1` [Example XXIV, 3-(4-methoxyphenyl)-5-((2-hydroxyethyl)aminoacetamido)indeno[1,2-c]pyrazol-4-one] reads 243 °C.
For the molecule `COc1ccc(-c2[nH]nc3c2C(=O)c2c(NC(=O)CN4CCNCC4)cccc2-3)cc1` [Example XXVI, 3-(4-methoxyphenyl)-5-(piperazinoacetamido)indeno[1,2-c]pyrazol-4-one], the melting point was found to be 277 °C.
The result for `O=C(Nc1cccc2c1C(=O)c1c-2n[nH]c1-c1ccc(C(=O)NN2CCCCC2)s1)NN1CCOCC1` (as salt: TFA) [Example CXLVII, 3-(5-piperidinoaminocarbonyl-2-thienyl)-5-(morpholinocarbamoylamino)indeno [1,2-c]pyrazol-4-one] reads 189 °C; that for `CN1CCN(c2ccc(-c3[nH]nc4c3C(=O)c3c(NC(=O)NN5CCOCC5)cccc3-4)cc2)CC1` (as salt: TFA) [Example CCXVIII, 3-(4-(4-methylpiperazino)phenyl)-5-(morpholinocarbamoylamino)indeno[1,2-c]pyrazol-4-one], 245 °C.
`CN1C[C@@H]2C[C@@]1(C(=O)c1ccc(-c3[nH]nc4c3C(=O)c3c(NC(=O)NN5CCOCC5)cccc3-4)s1)CN2` (as salt: TFA) [Example CLVII, 3-(5-(((1S,4S)-(+)-2-methyl-2,5-diazabicyclo[2.2.1]heptyl)carbonyl)-2-thienyl)-5-(morpholinocarbamoylamino)indeno[1,2-c]pyrazol-4-one] yielded a melting point of 244 °C.
The result for `Cc1cc(-c2[nH]nc3c2C(=O)c2c(NC(=O)NN4CCN(C)CC4)cccc2-3)c(C)s1` [Example CXXIV, 3-(2,5-dimethyl-3-thienyl)-5-((4-methylpiperazino)carbamoylamino)indeno [1,2-c]pyrazol-4-one] reads 250 °C; that for `CCc1ccc(-c2[nH]nc3c2C(=O)c2c(NC(C)=O)cccc2-3)cc1` [Example LXI, 3-(4-ethylphenyl)-5-(acetamido)indeno[1,2-c]pyrazol-4-one], 294 °C.
The result for `Cn1ccc(-c2[nH]nc3c2C(=O)c2c(NC(N)=O)cccc2-3)c1` [Example LXXXVIX, 3-(1-methyl-3-pyrrolyl)-5-(carbamoylamino)indeno[1,2-c]pyrazol-4-one] reads 269 °C.
The molecule `O=C(Nc1cccc2c1C(=O)c1c-2n[nH]c1-c1ccc(C(=O)NC2CCNCC2)s1)NN1CCOCC1` (as salt: TFA) [Example CLXII, 3-(5-(4-piperidylaminocarbonyl)-2-thienyl)-5-(morpholinocarbamoylamino)indeno[1,2-c]pyrazol-4-one] yielded a melting point of 224 °C.
For `CC(=O)Nc1cccc2c1C(=O)c1c-2n[nH]c1-c1ccc(N2CCOCC2)cc1` [Example LVIII, 3-(4-morpholinophenyl)-5-(acetamido)indeno[1,2-c]pyrazol-4-one] the value was over 300 °C.
For `O=C(Nc1cccc2c1C(=O)c1c-2n[nH]c1C1CCN(C(=O)c2cccs2)CC1)NN1CCOCC1` (as salt: TFA) [Example CCLXV, 3-(1-(2-thienylcarbonyl)piperidin-4-yl)-5-(morpholinocarbamoylamino)indeno[1,2-c]pyrazol-4-one], the melting point amounted to 218 °C.
For `CN(C)c1ccc(-c2[nH]nc3c2C(=O)c2c(NC(=O)CN4CCC(O)CC4)cccc2-3)cc1` [Example LXXX, 3-(4-(N,N-dimethylamino)phenyl)-5-(4-hydroxypiperidinoacetamido)indeno[1,2-c]pyrazol-4-one] the value was 267 °C.
The result for `CN1CCC(CNC(=O)c2ccc(-c3[nH]nc4c3C(=O)c3c(NC(=O)NN5CCOCC5)cccc3-4)s2)C1` (centres unmarked) (as salt: TFA) [Example CLXXXIII, 3-(5-((1-methylpyrrolidin-3-yl)methylaminocarbonyl)-2-thienyl)-5-(morpholinocarbamoylamino)indeno[1,2-c]pyrazol-4-one] reads 151 °C; that for `CNc1ccc(NC(=O)c2ccc(-c3[nH]nc4c3C(=O)c3c(NC(=O)NN5CCOCC5)cccc3-4)s2)cc1` (as salt: TFA) [Example CXCVI, 3-(5-((4-methylaminophenyl)aminocarbonyl)-2-thienyl)-5-(morpholinocarbamoylamino)indeno[1,2-c]pyrazol-4-one], 230 °C; that for `CCOC(=O)c1ccc(-c2[nH]nc3c2C(=O)c2c(NC(=O)NN4CCC[C@@H]4COC)cccc2-3)s1` [Example CCI, 3-(5-carboethoxy-2-thienyl)-5-(2 (R)-(methoxymethyl)pyrrolidinocarbamoylamino)indeno[1,2-c]pyrazol-4-one], 221 °C.
`COc1ccc(-c2[nH]nc3c2C(=O)c2c(NC(=O)C4CC4)cccc2-3)cc1` [Example III, 3-(4-methoxyphenyl)-5-(cyclopropanecarboxamido)indeno[1,2-c]pyrazol-4-one] had a melting point of 289 °C.
`O=C(Nc1cccc2c1C(=O)c1c-2n[nH]c1-c1ccc(C(=O)N2CCC[C@@H]2CN2CCCC2)s1)NN1CCOCC1` (as salt: TFA) [Example CLXXXIV, 3-(5-(2(R)-(pyrrolidinomethyl)pyrrolidinocarbonyl)-2-thienyl)-5-(morpholinocarbamoylamino)indeno[1,2-c]pyrazol-4-one] gave a melting point of 166 °C.
In the case of `COC(C)(C)[C@@H]1CCCN1NC(=O)Nc1cccc2c1C(=O)c1c-2n[nH]c1-c1ccc(N2CCNCC2)cc1` (as salt: TFA) [Example CCXXXII, 3-(4-piperazinophenyl)-5-((2(S)-(1-methoxy-1-methylethyl)pyrrolidino)carbamoylamino)indeno[1,2-c]pyrazol-4-one], the melting point amounted to 218 °C.
For `Cc1cc(-c2[nH]nc3c2C(=O)c2c(NC(N)=O)cccc2-3)c(C)s1` [Example CII, 3-(2,5-dimethyl-3-thienyl)-5-(carbamoylamino)indeno[1,2-c]pyrazol-4-one] the value was over 280 °C.
`CCN(CC)CC1CCCCN1C(=O)c1ccc(-c2[nH]nc3c2C(=O)c2c(NC(=O)NN4CCOCC4)cccc2-3)s1` (centres unmarked) (as salt: TFA) [Example CLXXIII, 3-(5-(2-(N,N-diethylaminomethyl)piperidinocarbonyl)-2-thienyl)-5-(morpholinocarbamoylamino)indeno[1,2-c]pyrazol-4-one] showed a melting point of 210 °C.
The result for `COC(C)(C)[C@H]1CCCN1NC(=O)Nc1cccc2c1C(=O)c1c-2n[nH]c1-c1ccc(N2CCNCC2)cc1` (as salt: TFA) [Example CCXXXI, 3-(4-piperazinophenyl)-5-((2(R)-(1-methoxy-1-methylethyl)pyrrolidino)carbamoylamino)indeno[1,2-c]pyrazol-4-one] reads 221 °C; that for `COc1ccc(-c2[nH]nc3c2C(=O)c2c(NC(=O)CN4CCCC4)cccc2-3)cc1` [Example XXXIV, 3-(4-methoxyphenyl)-5-(pyrrolidinoacetamido)indeno[1,2-c]pyrazol-4-one], 279 °C; that for `COc1ccc(-c2[nH]nc3c2C(=O)c2c(NC(=O)CN4CCC(CN)CC4)cccc2-3)cc1` [Example XXX, 3-(4-methoxyphenyl)-5-(4-(aminomethyl)piperidinoacetamido)indeno[1,2-c]pyrazol-4-one], over 300 °C.
The result for `CN1CCN(C(=O)[C@H]2CC[C@H](c3[nH]nc4c3C(=O)c3c(NC(=O)NN5CCOCC5)cccc3-4)CC2)CC1` (as salt: TFA) [Example CCCIV, 3-(trans-4-(4-methylpiperazinocarbonyl)cyclohexyl)-5-(morpholinocarbamoylamino)indeno[1,2-c]pyrazol-4-one] reads 228 °C; that for `O=C(Nc1cccc2c1C(=O)c1c-2n[nH]c1-c1ccc(C(=O)N2CCN(CC3CC3)CC2)s1)NN1CCOCC1` (as salt: TFA) [Example CLIII, 3-(5-(4-(cyclopropylmethyl)piperazinocarbonyl)-2-thienyl)-5-(morpholinocarbamoylamino)indeno[1,2-c]pyrazol-4-one], 211 °C.
The result for `CN(C)C1CCCN(C(=O)c2ccc(-c3[nH]nc4c3C(=O)c3c(NC(=O)NN5CCOCC5)cccc3-4)s2)C1` (centres unmarked) (as salt: TFA) [Example CLXV, 3-(5-(3-(N,N-dimethylamino)piperidinocarbonyl)-2-thienyl)-5-(morpholinocarbamoylamino)indeno[1,2-c]pyrazol-4-one] reads over 300 °C.

(Values after patent US6407103B2, “Indeno [1,2-c] pyrazol-4-ones and their uses” (Bristol-Myers Squibb Pharma Company, priority 1998, dated 2002).)
